Reference: US20240277677A1, “SALT FORM AND CRYSTAL FORM THEREOF OF SULFONYLUREA RING SUBSTITUTED COMPOUND” (priority 2022, published 2024)
Converted amounts (≈) assume the structure as drawn. Like-named read-outs stand apart in the source and are kept apart here.

Experiments:
[1] = Stability test of the crystal form A in different solvents (suspension 2 days, crystal form test); format: physicochemical; conditions: for Result (crystal form): 20~30° C., 2 days
[2] = tested on: Enterobacter cloacae ATCC BAA-1143 (AmpC); assay: Antibacterial activity MIC, micro-liquid dilution method (CLSI); format: cell-based; conditions: ATCCBAA1143, E. cloacae ATCC BAA-1143 Class C (AmpC)
Text: (§1) Three strains of Klebsiella pneumonia, ATCC BAA-205 (TEM-1/SHV-1/SHV-12), ATCC BAA-1705 (KPC-2), ATCC BAA-2470 (NDM-1), Enterobacter cloacae ATCC BAA-1143 (AmpC), two strains of Escherichia coli ATCC BAA-2523(OXA-48), ATCC 25922 were used to determine the minimum inhibitory concentration (MIC) of each of the compounds by a micro-liquid dilution method according to the Institute of Clinical and Laboratory Standard (CLSI) requirements. A 2-fold serial dilution of the compound (final concentration ranging from 0.125 μg/ml to 128 µg/ml) was added to a round-bottom 96-well plate (Catalog #3788, Corning), fresh monoclonal bacteria were selected from an overnight cultured Mueller Hinton II Agar medium plate (MHA, Cat. No. 211438, BD BBL™) and suspended in sterile saline, the concentration was adjusted to 1×10^8 CFU/mL, and then the solution was diluted by using a cation-adjusted Hinton Mueller culture medium Cation-Adjusted Mueller Hinton II Broth (MHB, Catalog #212332, BD BBL™) to a concentration of 5×10^5 CFU/ml, and 100 μl of the solution was added to a round bottom 96-well plate containing the drugs. The plate was placed upside down at 37° C. and the MIC value was read after 20-24 h of incubation, and the lowest drug concentration that inhibited the growth of bacteria was set as MIC. For the results see Table 1. Colony-Forming Units (CFU) refers to the total number of bacterial colonies per unit volume.

[3] = tested on: Escherichia coli ATCC BAA-2523(OXA-48); assay: as above; format: cell-based; conditions: ATCCBAA2523, E. coli ATCC BAA-2523 Class D (OXA-48)
Text: as §1

[4] = tested on: Klebsiella pneumonia ATCC BAA-1705 (KPC-2); assay: as above; format: cell-based; conditions: Klebsiella pneumoniae, ATCCBAA1705; K. pneumoniae ATCC BAA-1705 Class A (KPC-2)
Text: as §1

[5] = tested on: Escherichia coli ATCC 25922; assay: as above; format: cell-based; conditions: ATCC25922, E. coli ATCC 25922
Text: as §1

[6] = tested on: Klebsiella pneumonia ATCC BAA-2470 (NDM-1); assay: as above; format: cell-based; conditions: Klebsiella pneumoniae, ATCCBAA2470; K. pneumoniae ATCC BAA-2470 Class B (NDM-1)
Text: as §1

[7] = tested on: Klebsiella pneumonia ATCC BAA-205 (TEM-1/SHV-1/SHV-12); assay: as above; format: cell-based; conditions: Klebsiella pneumoniae, ATCCBAA205
Text: as §1

[8] = Exploration of other crystal forms by changing crystallization conditions; format: physicochemical
Text: Purpose: Explore obtaining other crystal forms by changing crystallization conditions.

[9] = Pharmacokinetics study in rats in vivo, intravenous administration; set-up: species or system SD male rats; conditions: for AUC(0-t) / C0 / clearance / half-life / Vd: Sprague-Dawley (SD), rat, plasma, SD male rats, dissolved in saline; for AUC(0-t): read-out: AUC0-last Area under plasma concentration-time curve; for C0: read-out: C0 Initial concentration; for clearance: read-out: Cl Clearance rate; for half-life: read-out: T1/2 Half-life period (converted); for Vd: read-out: Vdss Apparent volume of distribution
Procedure: The pharmacokinetic characteristics in rodents after intravenous administration of the compound was tested with standard scheme. Specifically, SD male rats at the age of 7-10 weeks were administered intravenously with the candidate compound in the experiment. The compound was dissolved in salt water to prepare a clear solution. The plasma samples are collected and analyzed by LC-MS/MS, and the pharmacokinetic parameters were calculated.

[10] = tested on: Escherichia coli ATCC 25922; assay: Spontaneous drug resistance mutation rate (FOR); format: cell-based; conditions: for Drug resistance frequency (24 h) / Drug resistance frequency (48 h) / Drug resistance frequency (72 h): selected total colony count 2.60E+08 CFU
Procedure: Escherichia coli ATCC 25922 was used to carry out a micro-liquid dilution method according to the Institute of Clinical and Laboratory Standard (CLSI) requirements, the colony for selection with a total colony count of 2.60E+08CFU in Colony-Forming Units (CFU) was selected, […], 4, 8, 16, 32-fold of minimum inhibitory concentration (MIC), and the drug resistance frequency was calculated.

[11] = Solid stability study of the crystal form A (high temperature, high humidity, light; XRPD, appearance, content, related substances); format: physicochemical
[12] = intravenous injection at 100 mg/kg
[13] = intravenous injection at 300 mg/kg
[14] = Light 10 days (visible light intensity 5000 lux and ultraviolet intensity 90 μw/cm^2, open)

NC[C@@H]1CN(C[C@@H]2[C@H](NC(=O)/C(=N\OC3(C(=O)O)CC3)c3csc(N)n3)C(=O)N2S(=O)O)S(=O)(=O)N1 (stereo in doubt)
Appearance (2 days) ([1]; Acetonitrile): Suspension
Appearance (2 days) ([1]; Acetonitrile-water(20:1)): Suspension
Appearance (2 days) ([1]; Ethanol): Suspension
Appearance (2 days) ([1]; Ethanol-water(20:1)): Suspension
Appearance (2 days) ([1]; Ethyl acetate): Suspension
Appearance (2 days) ([1]; Isopropanol): Suspension
Appearance (2 days) ([1]; Isopropanol-water(20:1)): Suspension
Appearance (2 days) ([1]; Tetrahydrofuran): Suspension
Result (crystal form) ([1]; suspended in Acetonitrile): Crystal form A
Result (crystal form) ([1]; suspended in Acetonitrile-water(20:1)): Crystal form A
Result (crystal form) ([1]; suspended in Ethanol): Crystal form A
Result (crystal form) ([1]; suspended in Ethanol-water(20:1)): Crystal form A
Result (crystal form) ([1]; suspended in Ethyl acetate): Crystal form A
Result (crystal form) ([1]; suspended in Isopropanol): Crystal form A
Result (crystal form) ([1]; suspended in Isopropanol-water(20:1)): Crystal form A
Result (crystal form) ([1]; suspended in Tetrahydrofuran): Crystal form A
Stability in solvents (conclusion) ([1]; variety of solvents): stable
MIC [2]: 0.5 µg/mL (≈ 0.882 µM)
MIC [3]: 0.125 µg/mL (≈ 0.221 µM)
MIC [4]: 1 µg/mL (≈ 1.76 µM)
MIC [5]: 0.25 µg/mL (≈ 0.441 µM)
MIC [6]: 0.25 µg/mL (≈ 0.441 µM)
MIC [7]: 0.5 µg/mL (≈ 0.882 µM)
Result of crystallization (exploration of other crystal forms) ([8]; EtOH:H2O = 10:1, first dissolved and then cooled down): No crystal was obtained
Result of crystallization (exploration of other crystal forms) ([8]; EtOH:H2O = 20:1, first dissolved and then cooled down): No crystal was obtained
Result of crystallization (exploration of other crystal forms) ([8]; IPA:H2O = 10:1, first dissolved and then cooled down): No crystal was obtained
Result of crystallization (exploration of other crystal forms) ([8]; IPA:H2O = 20:1, first dissolved and then cooled down): No crystal was obtained
Result of crystallization (exploration of other crystal forms) ([8]; THF:H2O = 10:1, first dissolved at 40° C., cooled to 0~5° C.): No crystal was obtained
Result of crystallization (exploration of other crystal forms) ([8]; acetone:H2O = 20:1, first dissolved and then cooled down): No crystal was obtained
Other crystal forms obtained (conclusion) ([8]; dissolved in different aqueous systems and then crystallized): no other crystal forms were obtained
AUC(0-t) [9, 12]: 166 µM·h
C0 [9, 12]: 581 µM
clearance [9, 12]: 17.2 mL/min/kg
half-life [9, 12]: 18.7 min
Vd [9, 12]: 0.378 L/kg
AUC(0-t) [9, 13]: 467 µM·h
C0 [9, 13]: 1380 µM
clearance [9, 13]: 18.4 mL/min/kg
half-life [9, 13]: 21.7 min
Vd [9, 13]: 0.463 L/kg
Exposure versus dose (conclusion) ([9]; rats, intravenous): increases linearly
Drug resistance rate (conclusion) ([10]; 2-fold of MIC, E. coli ATCC 25922): lower drug resistance rate
Drug resistance frequency (24 h) ([10]; 2 × MIC): <3.85E−09
Drug resistance frequency (48 h) ([10]; 2 × MIC): <3.85E−09
Drug resistance frequency (72 h) ([10]; 2 × MIC): =3.85E−09
Drug resistance frequency (24 h) ([10]; 4 × MIC): <3.85E−09
Drug resistance frequency (48 h) ([10]; 4 × MIC): <3.85E−09
Drug resistance frequency (72 h) ([10]; 4 × MIC): <3.85E−09
Drug resistance frequency (24 h) ([10]; 8 × MIC): <3.85E−09
Drug resistance frequency (48 h) ([10]; 8 × MIC): <3.85E−09
Drug resistance frequency (72 h) ([10]; 8 × MIC): <3.85E−09
Drug resistance frequency (24 h) ([10]; 16 × MIC): <3.85E−09
Drug resistance frequency (48 h) ([10]; 16 × MIC): <3.85E−09
Drug resistance frequency (72 h) ([10]; 16 × MIC): <3.85E−09
Drug resistance frequency (24 h) ([10]; 32 × MIC): <3.85E−09
Drug resistance frequency (48 h) ([10]; 32 × MIC): <3.85E−09
Drug resistance frequency (72 h) ([10]; 32 × MIC): <3.85E−09
Purity % ([11]; 0 day): 85.6%
Total impurities % ([11]; 0 day): 14.4%
Purity % ([11]; 25° C./75% RH-5 days (open)): 87.4%
Total impurities % ([11]; 25° C./75% RH-5 days (open)): 12.6%
Purity % ([11]; 25° C./75% RH-10 days (open)): 85.4%
Total impurities % ([11]; 25° C./75% RH-10 days (open)): 14.6%
Related substances and contents (conclusion) ([11]; 60° C., 25° C./75% RH and light conditions): did not change significantly
Purity % ([11]; 60° C.-5 days (open)): 87.3%
Total impurities % ([11]; 60° C.-5 days (open)): 12.7%
Purity % ([11]; 60° C.-10 days (open)): 86.6%
Total impurities % ([11]; 60° C.-10 days (open)): 13.4%
Purity % [11, 14]: 86.4%
Total impurities % [11, 14]: 13.6%
Purity % ([11]; Light control -10 days): 86.8%
Total impurities % ([11]; Light control -10 days): 13.2%
Solid stability (conclusion) ([11]; high temperature, high humidity and light conditions): stable
